In US10098899B2, “Drug with activity against the herpes virus family” (priority 2010, dated 2018):

Columns and labels:
[1] = system: Herpes virus of type II; experiment: Antiviral activity in Vero cells, unaltered cells, herpes virus of type II; format: cell-based; conditions: for Number (%) of unaltered cells, percent / Number of unaltered cells: Herpes virus of type II, Vero cells, 50 mg/1 of preparation; for Number of unaltered cells: non-infected reference 10000
Experimental: (§1) Determining Activity Against Herpes Viruses of Type 1 and 11.
(§2) Herpes simplex virus (strain EC) was grown in Vero cells cultured in MEM medium with the addition of 0.2% bovine serum and 50 mg/1 of the preparations under study.

[2] = system: type I herpes simplex virus (strain EC); experiment: Herpetic pneumonia in white mice: virus titer in lungs (titration on Vero cells); format: in vivo, white non-pedigree mice; conditions: for Virus titer in lungs of mice on day 3 after the infection: day 3 after infection, 50 mg/kg intragastrically, 24 h and 1 h prior to and 24 h and 48 h after infection
Experimental: Antiviral activity of the inventive substance was determined using the model of pneumonia in white mice caused by type I herpes simplex virus.
Herpes simplex virus of type I (strain EC) was accumulated in Vero cells cultured in MEM medium with the addition of 0.2% bovine serum, 50 μg/ml of gentamicin. Virus titration was performed on Vero cells cultured in 96-well plates. Results were recorded after a pronounced cytopathic effect (CPE) appeared in virus control. The degree of intactness of the cellular monolayer was assessed visually, virus titer was calculated as the reciprocal value of Briggs logarithm of the largest dilution of the source material that is still able to produce visually notable manifestations of CPE in the cell culture (CTD50).
For assessing the virus inhibiting action of the preparations, white non-pedigree mice weighing 12-15 g (“Rappolovo” farm, Leningrad Region) were infected intranasally under a light ether anaesthesia with the herpes simplex virus in the dosage of 106 (CTD50)/0.05 ml. The preparation under study was administered intragastrically in the dosage of 50 mg/kg of weight according to a medical-preventive scheme (24 h and 1 h prior to infection, and 24 h and 48 h after the animals were infected). On day 3 the lungs of the infected animals were removed, homogenized in the presence of 10-fold volume of phosphate buffer and then 10-fold dilutions from 10-1 to 10-6 were prepared thereof. Dilutions of the lungs homogenate were used for infecting the intact culture of Vero cells and for titration of virus progeny. Positive reference was represented by lungs of mice that instead of the studied preparation received physiological solution by intragastric administration, whereas negative reference was represented by lungs of mice that received aciclovir in the dosage of 50 mg/kg of weight according to the same scheme. Each experimental group consisted of 10 animals.

[3] = system: type I herpes simplex virus (strain EC); experiment: Herpetic pneumonia in white mice: histologic (morphometric) examination of lungs; format: in vivo, white non-pedigree mice
[4] = system: Herpes virus of type I; experiment: Antiviral activity in Vero cells, unaltered cells, herpes virus of type I; format: cell-based; conditions: 50 mg/1 of preparation; for Number of unaltered cells: non-infected reference 10000
Experimental: as §1, §2

Row | Molecule | Number (%) of unaltered cells, percent [1] | Number of unaltered cells [1] | antiviral activity compared with aciclovir (in words) ([1]; in particular against the herpes virus of type II) | virus-inhibitory activity at the model of herpetic pneumonia in vivo (in words) ([2]; compared with aciclovir at the same dosage) | Virus titer in lungs of mice on day 3 after the infection [2] | Area of an inflammation focus in section ([3]; term 2 days) | Number of inflammation foci in one animal ([3]; term 2 days) | Area of an inflammation focus in section ([3]; term 4 days) | Number of inflammation foci in one animal ([3]; term 4 days) | Area of an inflammation focus in section ([3]; term 6 days) | Number of inflammation foci in one animal ([3]; term 6 days) | Number (%) of unaltered cells, percent [4] | Number of unaltered cells [4]
1 | (2,6-dichlorophenyl)amide salt of carbopentoxysulfanilic acid [The inventive substance] | (90%) | 9000 | significantly exceeds that of the aciclovir | statistically significant virus-inhibitory activity | 1.0 ± 0.11 Lg CTD50 | 47 ± 7.3 | 3 | 49 ± 12.1 | 2 | 14 ± 5.5 | 1 | (80%) | 8000
2 | Nc1nc2c(ncn2COCCO)c(=O)[nH]1 [Aciclovir, 2-amino-1,9-dihydro-9-[(2-hydroxyethoxy)methyl]-6H-purine-6-on, reference compound] | (70%) | 7000 |  |  | 1.4 ± 0.34 Lg CTD50 | 55 ± 9.4 | 8 | 58 ± 14.7 | 3 | 24 ± 6.4 | 3 | (65%) | 7000
